Experimental data published in patent US20110183978A1, “Phenylpyri(mi)dinylazoles” (Bayer CropScience AG, priority 2009, published 2011).
Like-named read-outs stand apart in the source and are kept apart here.

Assays:
Sphaerotheca fuliginea [1] = experiment: Example L: in vivo test on Sphaerotheca fuliginea (powdery mildew on cucumber/protective); conditions: Podosphaera fuliginea, 168 h, cucumber, protective, assessment 7 days after inoculation, read-out: % Wirkungsgrad
How it was run: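 Young cucumber plants sprayed at stated dosage with compound in DMF/alkylaryl polyglycol ether emulsifier diluted in water; inoculated with S. fuliginea spores one day later. Kept in greenhouse at 70% relative humidity, 23° C; protective activity assessed 7 days after inoculation.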

Rhizoctonia solani = experiment: Example W: in vivo test on Rhizoctonia solani (sheath blight in rice/protective); conditions: 96 h, rice, protective, 250 ppm active substance, assessed 4 days after inoculation, read-out: % Activity level
How it was run: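 Young rice plants sprayed protectively with compound in acetone/alkylaryl polyglycol ether emulsion diluted in water at stated dosage. Inoculated with R. solani hyphae one day later; disease assessed 4 days post-inoculation.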

Leptosphaeria nodorum = experiment: Example Q: in vivo test on Leptosphaeria nodorum (glume blotch in wheat/protective); conditions: Parastagonospora nodorum, 192 h, wheat, protective, assessment 8 days after inoculation, read-out: % Wirkungsgrad
How it was run: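 Protective test: young wheat plants sprayed with compound formulated in N,N-dimethylacetamide plus alkylaryl polyglycol ether emulsifier, diluted in water to the stated dose. After drying, plants inoculated with L. nodorum spore suspension; disease assessed 8 days post-inoculation.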

Aspergillus parasiticus = experiment: microbe, parasite or virus in culture; assay type: cell-based; conditions: 168 h
Sphaerotheca fuliginea [2] = experiment: Example D: in vivo test on Sphaerotheca fuliginea (powdery mildew on cucumber); conditions: Podosphaera fuliginea, 288 h, cucumber plants sprayed 24 hours before inoculation, scored after 12 days, read-out: % Wirkungsgrad
How it was run: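 Scoring took place 12 days after spore inoculation (100,000 spores/ml, at ca. 20/25° C., 60/70% RH) and was made against plants sprayed without active substance. Inoculation followed by 24 hours a spray of water-diluted acetone/Tween/DMSO compound suspension onto Z10 cotyledon-stage cucumbers.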

Fusarium graminearum = experiment: whole plant or invertebrate; assay type: in vivo; conditions: in Hordeum vulgare, 120 h, read-out: % Wirkungsgrad (activity level)
Botrytis cinerea = experiment: Example B: in vivo test on Botrytis cinerea (grey mould on cucumbers); conditions: cucumber plants sprayed 24 hours before inoculation, scored after 5-7 days, read-out: % Wirkungsgrad
How it was run: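 Cucumber plants (Vert petit de Paris) sprayed at cotyledon stage Z11 with aqueous suspension of compound (acetone/Tween/DMSO), then inoculated with spores from 15-day-old culture in gelatine/fructose nutrient solution. Kept 5-7 days at 15-11° C, then scored against untreated sprayed controls.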

Alternaria solani = experiment: Example M: in vivo test on Alternaria solani (leaf blotch disease/tomato/protective); conditions: 168 h, tomato, protective, 500 ppm active substance, assessed 7 days after inoculation, read-out: % Wirkungsgrad (activity level)
How it was run: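 Alternaria solani infection on tomato scored 7 days post-inoculation. Before inoculation, young plants received a protective spray at the stated application dose; formulation was compound mixed with N,N-dimethylformamide and emulsifier, water-diluted.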

Cochliobolus miyabeanus = experiment: Example X: in vivo test on Cochliobolus miyabeanus (brown spot disease, rice/protective); conditions: Bipolaris oryzae, 96 h, read-out: % Activity level
Rhynchosporium secalis = experiment: Example S: in vivo test on Rhynchosporium secalis (leaf scald in barley/protective); conditions: 336 h, barley, protective, 1000 ppm active substance, assessed 14 days after inoculation, read-out: % Wirkungsgrad (activity level)
How it was run: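 Protective test: young barley plants were sprayed with active substance in dimethylacetamide/alkylaryl polyglycol ether emulsion diluted with water. Once dry, plants were inoculated with R. secalis spore suspension. Assessment was made 14 days after inoculation.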

Phakopsora pachyrhizi = experiment: Example Z: in vivo test on Phakopsora pachyrhizi (soya bean rust/protective); conditions: soya bean rust, protective, 250 ppm active substance, assessed 11 days after inoculation
[3] = 50 μM, 7 days at 20° C., read-out: Inhibition der Aflatoxin produktion bei 50 μM
[4] = read-out: % Inhibition des Pilzwachstums bei 50 μM

| Structure (SMILES) | pest or weed control at 500 ppm (Sphaerotheca fuliginea [1]) [%] | pest or weed control at 250 ppm (Rhizoctonia solani) [%] | pest or weed control at 1000 ppm (Leptosphaeria nodorum) [%] | inhibition at 50 µM (Aspergillus parasiticus; [3]) [%] | inhibition at 50 µM (Aspergillus parasiticus; [4]) [%] | pest or weed control at 500 ppm (Sphaerotheca fuliginea [2]) [%] | pest or weed control at 1000 ppm (Fusarium graminearum) [%] | pest or weed control at 500 ppm (Botrytis cinerea) [%] | pest or weed control at 500 ppm (Alternaria solani) [%] | pest or weed control at 250 ppm (Cochliobolus miyabeanus) [%] | pest or weed control at 1000 ppm (Rhynchosporium secalis) [%] | % Activity level (Phakopsora pachyrhizi) [%] |
| --- | --- | --- | --- | --- | --- | --- | --- | --- | --- | --- | --- | --- |
| CCC(=O)Nc1cc(-c2cn(C(C)C)nc2-c2ccc(F)cc2)ccn1 [Compound 85] | 100 | 97 | 100 | 100 | 98 | 100 | 100 | 100 | 100 | 90 |  |  |
| CC(C)C(=O)Nc1cc(-c2cn(C(C)C)nc2-c2ccc(F)cc2)ccn1 [Compound 84] | 100 | 100 | 100 | 100 | 98 | 100 | 100 | 100 | 95 | 93 | 90 | 98 |
| CC(C)n1cc(-c2ccnc(NC(=O)C3CC3)c2)c(-c2ccc(F)cc2)n1 [Compound 86] | 100 | 100 | 100 | 100 | 97 | 100 | 100 | 100 |  | 80 | 86 |  |
| CC(C)Cn1cc(-c2ccncc2)c(-c2ccc(F)cc2)n1 [Compound 1] |  | 100 | 100 |  |  | 100 | 100 | 100 |  | 85 |  | 91 |
